Entries after “also recorded” stand apart in the source; their conditions may differ. Where only a bound is given, the exact number is not on record here.

Common to all, as to type: physicochemical
A short description of series [1]: Static storage stability at elevated temperature/humidity (XRPD, HPLC).
Series [2] is described as follows: Gravimetric vapour sorption (GVS). As for the experimental part:
Sorption isotherms were obtained using a SMS DVS Intrinsic moisture sorption analyser, controlled by DVS Intrinsic Control software. The sample temperature was maintained at 25° C. by the instrument controls. The humidity was controlled by mixing streams of dry and wet nitrogen, with a total flow rate of 200 ml/min. The relative humidity was measured by a calibrated Rotronic probe (dynamic range of 1.0 — 100% RH), located near the sample. The weight change, (mass relaxation) of the sample as a function of % RH was constantly monitored by a microbalance (accuracy ±0.005 mg). Typically, 20-30 mg of sample was placed in a tared mesh stainless steel basket under ambient conditions. The sample was loaded and unloaded at 40% RH and 25° C. (typical room conditions). A moisture sorption isotherm was performed as outlined below (2 scans per complete cycle). The standard isotherm was performed at 25° C. at 10% RH intervals over a 0-90% RH range. Typically, a double cycle (4 scans) was carried out. Data analysis was carried out within Microsoft Excel using the DVS Analysis Suite. [table]

Series [3] in a line: Intrinsic dissolution rate (IDR) in FaSSGF.
A short description of series [4]: Thermodynamic aqueous solubility. Particulars: for pH of saturated solution: water, after 24 hours equilibration at 25° C. As to the method:
Aqueous solubility was determined by suspending sufficient compound in 0.5 ml deionized water to give a maximum final concentration of 40 mg/ml of the parent free-form of the compound. The suspension was equilibrated at 25° C., on a Heidolph plate shaker set to 750 rpm for 24 hours. After equilibration, the appearance was noted and the pH of the saturated solution was measured. Samples forming suspensions were centrifuged for 4 min at 13,500 rpm. Samples were then filtered through a glass fiber C filter (particle retention 1.2 μm), before dilution with H2 O as appropriate. Quantitation was by HPLC (see Table 2 for parameters) with reference to a standard solution of approximately 0.15 mg/ml in DMSO. Different volumes of the standard, diluted and undiluted sample solutions were injected. The solubility was calculated using the peak areas determined by integration of the peak found at the same retention time as the principal peak in the standard injection. Analysis was performed on an Agilent HP1100/Infinity II 1260 series system equipped with a diode array detector and using OpenLAB software.

The nature of series [5]: Competitive slurries in different water activity (thermodynamic stability). As for the experimental part: Competitive slurries of the anhydrous and hydrated forms in different water activity at 50° C. and 5° C. were used to determine the thermodynamic stability relationships.

`O=C(NO)c1cnc(N2C[C@@H]3[C@H](C2)[C@H]3NCc2ccc3cc(F)ccc3n2)nc1` [Mesylate Form 1, N-hydroxy 2-{6-[(6-fluoro-quinolin-2-ylmethyl)-amino]-3-aza-bicyclo[3.1.0]hex-3-yl}pyrimidine-5-carboxamide]: the “HPLC purity after static storage” value in series [1] (25° C./97% RH, 1 week) is given as “no significant drop in purity”; in series [1] (25° C./97% RH, 14 weeks), 93.5%; in series [1] (40° C./75% RH, 1 week) it was “no significant drop in purity”; in series [1] (40° C./75% RH, 14 weeks), “Form 2 (94.7% purity)”. For the same compound, the “Solid form by XRPD after static storage” value in series [1] (25° C./97% RH, 14 weeks) was “Mesylate Form 1”; in series [1] (25° C./97% RH, 7 days (1 week)), “unchanged; also recorded: No change, Mesylate Form 1”; in series [1] (40° C./75% RH, 14 weeks), “Mixture of Mesylate Form 1 and Mesylate”; in series [1] (40° C./75% RH, 7 days (1 week)) it was “unchanged; also recorded: No change, Mesylate Form 1”. The “Reversible water uptake by GVS” value in series [2] (0-90% RH, 25° C.) is on record as 0.35% reversible uptake from 0-90%. Further, in series [2] (25° C.), the “Hygroscopicity by GVS” value is “Slightly hygroscopic”. Further, the “XRPD post-GVS (solid form)” value in series [2] (residue after GVS) is on record as “no change; also recorded: XRPD remains unchanged”. The “IDR relative to free base form A” value in series [3] (FaSSGF) is listed as about 8 times. The “IDR in FaSSGF” value in series [3] (Fasted State Simulated Gastric Fluid) is given as 9.1 mg/min/cm^2. The solubility at 24 h in series [4] (thermodynamic from solid, deionized water, 25° C., 24 hours, maximum final concentration 40 mg/ml of parent free-form) came to 40 mg/mL. For the same compound, the “pH of saturated solution” value is given as “(pH = 3.2)” in series [4] and about 3.2 in series [4] (listed as mesylate). For the same compound, the “Water activity (aw) up to which the form is the most stable” value in series [5] (competitive slurries at 50° C.) is recorded as 0.6; in series [5] (competitive slurries at ° C. (so in the source)), at least 0.3.

As a reminder, the solubility is the concentration that dissolves in the medium under given conditions.

The record behind these values is patent publication US20230382888A1, “HDAC INHIBITOR SOLID STATE FORMS” (Viracta Subsidiary, Inc., priority 2020, published 2023).
